Data set [1] concerns Gram-positive and Gram-negative bacteria. As to conditions: medically-relevant species of Gram-positive and Gram-negative bacteria; cited from earlier work.
The next data set has as its system tumour. The settings on record: animal models of disease; cited from earlier work.
For data set [2], the system named is MC38 colon carcinoma cells. Nature of the data set: MC38 colon carcinoma mouse model, tumour volume by caliper. In kind it is in vivo. The settings on record: female C57/BL6N mice with MC38 tumours; CyPep-1 2 mg/kg intratumoural days 1 and 2; anti-PD-1 antibody 5 mg/kg intraperitoneal days 4, 8, 11, 15; unpaired two-tailed t-test; combination P=0.02. The method, then: Female C57/BL6N mice were shaved at the intended site of tumour inoculation. 4 days later the mice were implanted with 5×10^5 MC38 colon carcinoma cells in a mixture of 50% PBS and 50% matrigel in a total injection volume of 100 μl.
Tumour sizes were measured by caliper. When the median tumour volume reached 100 mm^3, 40 mice were randomised to four groups: 1) Ctr_IT; 2) Ctr_IT_PD1; 3) CyPep_IT; and 4) CyPep_IT_PD1.
The Ctr_IT group were administered 0.05 ml/kg intratumoural PBS on days 1 and 2.
The Ctr_IT_PD1 group were administered 0.05 ml/kg/day intratumoural PBS on days 1 and 2, and 5 mg/kg intraperitoneal anti-PD-1 antibody on days 4, 8, 11 and 15. The anti-PD-1 antibody was administered in PBS at a concentration of 1 mg/ml.
The CyPep_IT group were administered 2 mg/kg CyPep-1 on days 1 and 2. Administration was intratumoural in PBS at a concentration of 40 mg/ml.
The CyPep_IT_PD1 group were administered 2 mg/kg intratumoural CyPep-1 in PBS at a concentration of 40 mg/ml on days 1 and 2; and 5 mg/kg intraperitoneal anti-PD-1 antibody on days 4, 8, 11 and 15, in PBS at a concentration of 1 mg/ml.
All groups were standardised prior to checkpoint inhibitor administration by excluding animals with tumours+/−>2X average at day three. […] Average tumour volumes of the groups were analysed by unpaired two-tailed t-test, and the tumours were also histologically analysed.

The subject of another data set is cancer cells. The settings on record: in vitro; cited from earlier work.

Where no end group is shown, it is not given here. [ ]: non-standard residue; d: D form.

The values that follow come from patent US20210154268A1, “COMBINATION THERAPY USING A PEPTIDE” (CYTOVATION AS, priority 2018, published 2021).

For the substance “CyPep-1: all D-amino acid peptide of SEQ ID NO: 1; Conductin/Axin2 fragment coupled to the C-terminus of the HIV-TAT cell-penetrating peptide ([dY]G[dR][dK][dK][dR][dR][dQ][dR][dR][dR]G[dK][dT][dL][dR][dV][dA][dK][dA][dI][dY][dK][dR][dY][dI][dE])”, the bacteriocidal effect result in data set [1] is “potent bacteriocidal effect”. Moreover, in the data set with tumour, the anti-tumour effect result is reported as “strong anti-tumour effect” and the tolerability result is on record as “well tolerated”. Moreover, the “tumour growth compared to the control group which received only PBS” value in data set [2] was “no statistically-significant difference”. In addition, the “selective cytotoxicity towards cancer cells” value in the data set on cancer cells is “selectively cytotoxic towards cancer cells”.
